Measured values as given in US8629132B2, “Kinase inhibitors” (Genosco, priority 2009, dated 2014).

Columns and labels:
K1T = K1T (Homo sapiens, UniProt P10721); assay: Kinase inhibition assay: KIT; assay type: biochemical
PIM1 = target: T1, PIM1 (Homo sapiens, UniProt P11309); assay: Kinase inhibition assay: PIM1; assay type: biochemical; conditions: at 1 μM concentration
T1 construct: Purified full-length human SYK, ZAP70, PIM1, PYK2; purchased Carna Biosciences
Method: (§1) Compounds of the present invention were tested for their capacity to inhibit a kinase panel which includes, but are not limited to, spleen tyrosine kinase (SYK), zeta-chain-associated protein kinase 70 (ZAP70), PTK2B protein tyrosine kinase 2 (PYK2), focal adhesion kinase (FAK), provirus integration of maloney kinase 1 (PIM1), rearranged during transfection kinase (RET), Fms-like tyrosine kinase 3 (FLT3), Janus kinase 2 (JAK2), and leucine-rich repeat kinase 2 (LRRK2).
(§2) Inhibition of SYK, ZAP70, PYK2, FAK, PIM1, RET, FLT3, JAK2 and LRRK2 Kinase Activity
Compounds of the invention were initially diluted to 10 mM in 100% DMSO (CALBIOCHEM™) for storage and made into kinase buffer solution to create a compound concentration ranging from 1 uM and 10 uM. Serial dilutions of compounds of the invention were dispensed into a 96-well plate (GREINER BIOSCIENCES™) at 6 μL each. Purified full-length human SYK, ZAP70, PIM1, PYK2 and truncated human FAK, RET, FLT3, JAK2, and LRRK2 (CARNA BIOSCIENCES™) were diluted in kinase buffer and added to the compound solutions and pre-incubated for 30 minutes at room temperature (1 hour for PYK2). […] The reaction mixture was incubated for 1 hour (2 hours for PYK2). Following the incubation, the stop solution made with EDTA, water, and Lance detection buffer ([…]™) was added (12μL each) to stop phosphorylation. […] Substrate phosphorylation was a function of the 665 nm emission measured following the addition of the detection solution and 50 minutes of incubation. The IC50 value of test compound was calculated at Gradpad Prism 5 unless specified otherwise.

PYK2 = target: T2, PYK2 (Homo sapiens, UniProt Q14289); assay: Kinase inhibition assay: PYK2; assay type: biochemical; conditions: at 1 μM concentration
T2 construct: Purified full-length human SYK, ZAP70, PIM1, PYK2; purchased Carna Biosciences
Method: as §1, §2
(§3) Compounds of the invention were initially diluted to 10 mM in 100% DMSO (CALBIOCHEM™) for storage and made into kinase buffer solution to create a compound concentration ranging from 1 uM and 10 uM. Serial dilutions of compounds of the invention were dispensed into a 96-well plate (GREINER BIOSCIENCES™) at 6 μL each. Purified full-length human SYK, ZAP70, PIM1, PYK2 and truncated human FAK, RET, FLT3, JAK2, and LRRK2 (CARNA BIOSCIENCES™) were diluted in kinase buffer and added to the compound solutions and pre-incubated for 30 minutes at room temperature (1 hour for PYK2). […] The reaction mixture was incubated for 1 hour (2 hours for PYK2). Following the incubation, the stop solution made with EDTA, water, and Lance detection buffer ([…]™) was added (12μL each) to stop phosphorylation. […] The IC50 value of test compound was calculated at Gradpad Prism 5 unless specified otherwise.

ZAP70 = target: T3, ZAP70 (Homo sapiens, UniProt P43403); assay: Kinase inhibition assay: ZAP70; assay type: biochemical; conditions: at 1 μM concentration
T3 construct: Purified full-length human SYK, ZAP70, PIM1, PYK2; purchased Carna Biosciences
T3 sequence (P43403 1-619): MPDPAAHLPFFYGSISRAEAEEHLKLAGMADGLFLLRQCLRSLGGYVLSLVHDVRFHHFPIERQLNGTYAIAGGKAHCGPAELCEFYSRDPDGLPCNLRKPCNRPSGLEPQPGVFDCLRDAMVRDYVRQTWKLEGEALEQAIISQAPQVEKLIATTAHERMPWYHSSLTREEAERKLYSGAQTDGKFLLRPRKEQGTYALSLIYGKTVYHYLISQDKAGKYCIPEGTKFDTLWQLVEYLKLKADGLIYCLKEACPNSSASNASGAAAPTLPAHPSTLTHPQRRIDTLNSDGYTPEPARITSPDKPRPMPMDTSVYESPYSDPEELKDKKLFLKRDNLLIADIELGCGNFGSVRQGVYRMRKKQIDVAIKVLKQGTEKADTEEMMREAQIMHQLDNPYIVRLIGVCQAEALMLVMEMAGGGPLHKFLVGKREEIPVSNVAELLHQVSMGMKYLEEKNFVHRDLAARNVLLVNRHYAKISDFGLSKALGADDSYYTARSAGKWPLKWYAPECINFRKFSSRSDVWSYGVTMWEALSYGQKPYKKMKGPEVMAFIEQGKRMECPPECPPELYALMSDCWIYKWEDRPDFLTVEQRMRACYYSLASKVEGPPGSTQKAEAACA
Method: as §1, §2, §3

LRRK2 = target: T4, LRRK2 (Homo sapiens, UniProt Q5S007); assay: Kinase inhibition assay: LRRK2; assay type: biochemical; conditions: at 1 μM concentration
T4 construct: truncated human FAK, RET, FLT3, JAK2, and LRRK2; purchased Carna Biosciences
Method: as §1, §2, §3

[1] = system: TNF-α release in THP-1 cells; assay: SYK independent TNF-α release assay (LPS stimulation); assay type: cell-based; conditions: Homo sapiens, 18-hour incubation
Method: Compounds of the present invention are tested for their effects on TNF-α release in human acute monocytic leukimia cell line (THP-1) to illustrate potential efficacy at the cellular level. TNF-α is a cytokine involved in systemic inflammation and is a member of a group of cytokines that stimulate the acute phase reaction. The primary role of TNF-α is in the regulation of immune cells. TNF-α is known to induce apoptotic cell death and inflammation and to inhibit early tumorigenesis and viral replication. Dysregulation and, in particular, overproduction of TNF-α have been implicated in a variety of human diseases, autoimmune disease, inflammation, arthritis and cancer.
Production or release of TNF-α is controlled by type of stimulus to which the cell responds. SYK activity is involved in mediating TNF-α production. When stimulated by IgG, cells increase TNF-α production in a SYK dependent manner (i.e., the SYK dependent pathway). However, when stimulated by lipopolysaccharide (LPS), they produce TNF-α in a SYK independent manner.
For SYK independent TNF-α release assay (i.e., via lipopolysaccharide (LPS)-stimulation), THP-1 cells derived from human monocytic cells were obtained from the American Type Culture Collection (ATCC, Manassas, Va.). This cell line was maintained with an RPMI medium (GIBCO™) containing 10 fetal bovine serum (FBS, GIBCO™) and 0.05 mM 2-mercaptoethanol. The THP-1 cells were seeded at 1×10^5 cells/100 μL/well into 96-well culture plates, and treated with lipopolysaccharide (1 μg/ml), and serially diluted compound was then added. After an 18-hour incubation period at 37° C., supernatants were collected for the determination of the TNF-α level by ELISA, and the remaining cells were subjected to an MTT assay to determine the cytotoxic effects.

T2 sequence (Q14289 whole entry): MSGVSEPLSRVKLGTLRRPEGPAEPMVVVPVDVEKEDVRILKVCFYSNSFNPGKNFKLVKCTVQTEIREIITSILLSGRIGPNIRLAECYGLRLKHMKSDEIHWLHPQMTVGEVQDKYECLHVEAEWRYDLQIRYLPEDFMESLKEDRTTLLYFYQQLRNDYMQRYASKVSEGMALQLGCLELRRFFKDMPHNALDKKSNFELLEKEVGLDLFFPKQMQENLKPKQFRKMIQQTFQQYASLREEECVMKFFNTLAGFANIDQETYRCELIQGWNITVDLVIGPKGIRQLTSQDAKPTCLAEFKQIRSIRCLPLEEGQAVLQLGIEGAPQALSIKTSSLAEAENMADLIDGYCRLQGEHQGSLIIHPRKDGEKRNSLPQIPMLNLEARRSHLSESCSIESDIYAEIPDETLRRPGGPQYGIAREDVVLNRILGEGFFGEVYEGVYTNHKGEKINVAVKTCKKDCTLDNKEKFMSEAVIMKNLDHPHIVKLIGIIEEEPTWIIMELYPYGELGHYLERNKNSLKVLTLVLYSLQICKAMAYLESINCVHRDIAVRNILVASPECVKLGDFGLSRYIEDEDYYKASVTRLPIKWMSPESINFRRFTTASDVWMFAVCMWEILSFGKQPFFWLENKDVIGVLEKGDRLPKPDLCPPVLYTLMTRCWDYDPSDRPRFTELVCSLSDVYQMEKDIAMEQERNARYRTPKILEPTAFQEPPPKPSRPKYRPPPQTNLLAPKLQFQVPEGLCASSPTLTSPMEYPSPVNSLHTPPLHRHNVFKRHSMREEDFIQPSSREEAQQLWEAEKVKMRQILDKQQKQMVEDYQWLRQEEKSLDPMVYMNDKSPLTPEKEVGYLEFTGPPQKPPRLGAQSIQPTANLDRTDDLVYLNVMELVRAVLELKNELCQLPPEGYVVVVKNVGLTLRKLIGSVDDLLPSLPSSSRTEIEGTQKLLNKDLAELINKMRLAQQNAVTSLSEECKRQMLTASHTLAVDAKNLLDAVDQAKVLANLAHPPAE
T4 sequence (Q5S007 970-2527 limits assumed): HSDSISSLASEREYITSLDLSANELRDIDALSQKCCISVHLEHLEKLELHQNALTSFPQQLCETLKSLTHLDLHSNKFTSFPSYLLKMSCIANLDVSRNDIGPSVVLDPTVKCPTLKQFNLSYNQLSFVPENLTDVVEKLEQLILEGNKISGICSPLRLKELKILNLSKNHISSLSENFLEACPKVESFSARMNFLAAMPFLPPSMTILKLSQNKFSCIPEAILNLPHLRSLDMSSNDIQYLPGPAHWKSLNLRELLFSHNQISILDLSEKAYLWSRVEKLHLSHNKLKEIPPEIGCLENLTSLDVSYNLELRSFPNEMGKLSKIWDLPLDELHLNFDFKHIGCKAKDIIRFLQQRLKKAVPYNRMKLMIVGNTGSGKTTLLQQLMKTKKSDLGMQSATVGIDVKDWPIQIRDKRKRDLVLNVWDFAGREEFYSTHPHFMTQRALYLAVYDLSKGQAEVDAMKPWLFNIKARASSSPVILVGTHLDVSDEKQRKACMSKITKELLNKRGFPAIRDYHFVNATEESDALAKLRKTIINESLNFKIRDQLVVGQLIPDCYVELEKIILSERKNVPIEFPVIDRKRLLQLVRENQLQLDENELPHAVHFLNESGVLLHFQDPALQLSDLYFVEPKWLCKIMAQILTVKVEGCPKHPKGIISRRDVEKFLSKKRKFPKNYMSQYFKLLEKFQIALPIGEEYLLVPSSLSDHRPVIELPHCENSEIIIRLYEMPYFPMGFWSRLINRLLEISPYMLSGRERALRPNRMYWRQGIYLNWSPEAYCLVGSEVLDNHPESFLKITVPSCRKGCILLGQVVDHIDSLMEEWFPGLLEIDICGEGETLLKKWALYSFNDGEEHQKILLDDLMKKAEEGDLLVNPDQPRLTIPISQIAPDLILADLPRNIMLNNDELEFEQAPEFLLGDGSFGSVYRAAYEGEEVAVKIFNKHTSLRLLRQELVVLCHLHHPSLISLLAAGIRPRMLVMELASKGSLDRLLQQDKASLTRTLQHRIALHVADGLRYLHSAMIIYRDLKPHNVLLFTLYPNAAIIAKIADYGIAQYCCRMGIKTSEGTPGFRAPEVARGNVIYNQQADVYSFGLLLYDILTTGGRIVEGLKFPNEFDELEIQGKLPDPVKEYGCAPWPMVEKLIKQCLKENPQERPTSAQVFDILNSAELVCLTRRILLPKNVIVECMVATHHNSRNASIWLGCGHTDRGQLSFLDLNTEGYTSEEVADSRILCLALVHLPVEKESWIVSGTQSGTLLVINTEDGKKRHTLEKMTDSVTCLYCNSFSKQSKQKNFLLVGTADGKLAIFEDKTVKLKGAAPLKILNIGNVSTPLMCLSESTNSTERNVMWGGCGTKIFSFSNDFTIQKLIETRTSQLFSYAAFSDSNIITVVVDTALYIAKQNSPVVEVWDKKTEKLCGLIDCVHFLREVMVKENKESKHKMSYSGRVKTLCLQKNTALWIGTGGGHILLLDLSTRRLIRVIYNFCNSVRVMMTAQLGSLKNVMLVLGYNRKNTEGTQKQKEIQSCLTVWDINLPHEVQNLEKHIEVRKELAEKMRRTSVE
Chain of K1T (P10721 26-976): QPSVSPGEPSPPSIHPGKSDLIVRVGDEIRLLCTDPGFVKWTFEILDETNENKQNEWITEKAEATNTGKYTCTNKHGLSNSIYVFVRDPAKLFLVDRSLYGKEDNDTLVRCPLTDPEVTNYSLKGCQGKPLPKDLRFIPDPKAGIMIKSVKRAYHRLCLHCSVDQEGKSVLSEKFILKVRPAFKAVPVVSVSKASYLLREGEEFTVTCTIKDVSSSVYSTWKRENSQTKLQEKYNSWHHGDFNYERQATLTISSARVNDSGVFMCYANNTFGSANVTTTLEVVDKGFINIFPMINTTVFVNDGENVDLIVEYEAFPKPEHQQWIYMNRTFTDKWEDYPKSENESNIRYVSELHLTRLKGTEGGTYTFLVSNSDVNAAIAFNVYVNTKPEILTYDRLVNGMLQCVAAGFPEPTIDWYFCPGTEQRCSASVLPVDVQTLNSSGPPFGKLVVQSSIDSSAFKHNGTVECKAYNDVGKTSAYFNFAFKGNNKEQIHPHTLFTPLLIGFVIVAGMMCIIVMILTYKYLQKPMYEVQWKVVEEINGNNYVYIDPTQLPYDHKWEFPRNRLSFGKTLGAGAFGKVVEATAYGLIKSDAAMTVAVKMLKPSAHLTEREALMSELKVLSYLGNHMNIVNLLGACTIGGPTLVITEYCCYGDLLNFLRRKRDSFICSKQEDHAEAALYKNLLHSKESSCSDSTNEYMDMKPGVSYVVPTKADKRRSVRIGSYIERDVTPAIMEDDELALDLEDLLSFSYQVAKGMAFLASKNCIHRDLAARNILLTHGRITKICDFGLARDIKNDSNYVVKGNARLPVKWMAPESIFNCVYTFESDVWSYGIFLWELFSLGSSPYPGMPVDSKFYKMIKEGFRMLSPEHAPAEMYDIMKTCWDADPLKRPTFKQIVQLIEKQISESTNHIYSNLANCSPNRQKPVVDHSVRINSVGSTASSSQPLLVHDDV
T1 sequence (P11309 whole entry): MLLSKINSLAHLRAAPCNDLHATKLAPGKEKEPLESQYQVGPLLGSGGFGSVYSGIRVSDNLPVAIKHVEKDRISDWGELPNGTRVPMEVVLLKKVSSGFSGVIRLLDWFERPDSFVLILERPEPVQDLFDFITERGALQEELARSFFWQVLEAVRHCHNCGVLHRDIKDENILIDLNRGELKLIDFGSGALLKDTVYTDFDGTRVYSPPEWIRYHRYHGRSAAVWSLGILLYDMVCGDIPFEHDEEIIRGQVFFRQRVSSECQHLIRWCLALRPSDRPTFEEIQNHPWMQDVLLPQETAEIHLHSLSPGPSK

Compound | IC50 (K1T) [nM] | inhibition at 1 µM (PIM1) [%] | inhibition at 1 µM (PYK2) [%] | inhibition at 1 µM (ZAP70) [%] | inhibition at 1 µM (LRRK2) [%] | inhibition at 0.3 µM ([1]; 0.3 μM) [%] | inhibition at 1 µM ([1]; 1 μM) [%]
COc1cc(Nc2ncc(C)c(-n3cc(C)c(CO)c3)n2)cc(OC)c1OC [Compound 21, (4-methyl-1-(5-methyl-2-(3,4,5-trimethoxyphenylamino)pyrimidin-4-yl)-1H-pyrrol-3-yl)methanol] | 137 | 71.2 | 78.2 | 54.6 | 93 | – | –
Cc1cc(C)cc(Nc2ncc(F)c(-n3cc(C)c(CN4CC[C@@H](O)C4)c3)n2)c1 [Compound 82, (R)-1-((1-(2-(3,5-dimethylphenyl-amino)-5-fluoropyrimidin-4-yl)-4-methyl-1H-pyrrol-3-yl)methyl) pyrrolidin-3-ol] | – | – | – | – | – | 18.1 | 21.5
